Laboratory results as given in US20110275673A1, “INHIBITORS OF SPHINGOSINE KINASE 1” (priority 2008, published 2011).
Counter-ions that a name gives are not always drawn.

target: T1, SPHK-1 (Homo sapiens, UniProt Q9NYA1); assay: Reporter Assay: sphingosine kinase conversion of fluorescein-labeled sphingosine, read on Lab Chip 3000; format: biochemical; settings: 2 μM Fl-sphingosine, 25 μM ATP, 300 ng/ml SK1, 1 hour at room temperature; from percent conversion of substrate to product; read-out: SPHK-1 IC50 (n =)
T1 construct: purchased BPS Bioscience
Description: Sphingosine kinase is a 49 kDa enzyme that catalyzes the formation of sphingosine-1-phosphate (S-1-P) from sphingosine.
Fluorescein labeled sphingosine was obtained from Echelon Biosciences (S-100F). Buffer reagents (1 M Hepes, 10 triton x-100, 100% glycerol, dithiothreitol 1 M MgCl2, ATP, 500 mM EDTA and DMSO) were purchased from Sigma. Coating reagent (CR-3), was obtained from Caliper Life Sciences.
0.05% Triton X-100, 2.5% glycerol, 0.1% CR-3, and 0,6% DMSO. Termination butler included 100 mM Hepes (pH 7.5), 40 mM EDTA, 0.05% Triton X-100, 2.5% glycerol, 0.3% CR-3, and 0.6% DMSO.
All assay components were made in reaction buffer. […] The assaylvas allowed to incubate at room temperature sealed and protected from light for 1 hour.
After 1 hour, 10 μl of termination buffer was added to terminate, the reaction, and the plate was read on a Lab Chip 3000. The plate was read for one cycle. The Lab Chip separated substrate and product based on charge.
Results were calculated based on percent conversion of substrate to product using the following formula: […]
Percent inhibition and IC50's for compounds of the invention were determined using the percent conversion values obtained horn the Lab Chip.

T1 sequence (Q9NYA1 whole entry): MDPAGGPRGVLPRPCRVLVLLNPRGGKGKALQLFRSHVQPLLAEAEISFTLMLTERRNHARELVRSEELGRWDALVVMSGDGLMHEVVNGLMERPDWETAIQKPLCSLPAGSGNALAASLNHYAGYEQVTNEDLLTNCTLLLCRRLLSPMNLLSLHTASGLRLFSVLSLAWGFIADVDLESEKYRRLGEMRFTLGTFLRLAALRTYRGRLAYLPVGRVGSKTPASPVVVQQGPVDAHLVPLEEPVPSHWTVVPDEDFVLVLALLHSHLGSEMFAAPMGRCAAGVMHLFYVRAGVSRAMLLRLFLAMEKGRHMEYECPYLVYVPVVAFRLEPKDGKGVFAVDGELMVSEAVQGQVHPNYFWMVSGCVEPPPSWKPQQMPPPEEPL

IC50 [nM] | Structure (SMILES)
460 | CCCCCCCCc1cc2cc(CNC(=O)[C@H]3NCC[C@@H]3O)cc(F)c2o1 [Example 118, (2S,3S)—N-((7-Fluoro-2-octylbenzofuran-5-yl)methyl)-3-hydroxypyrrolidine-2-carboxamide]
600 | CCCCCCCc1nc(-c2ccc(CNC(=O)[C@@H](N)CCO)cc2)no1 [Example 83, (S)-2-Amino-N-(4-(5-heptyl-1,2,4-oxadiazol-3-yl)benzyl)-4-hydroxybutanamide]
4700 | O=C(NCc1ccc(CCCCCOc2ccc(F)cc2)cc1)[C@H]1NCC[C@@H]1O [Example 28, (2S,3S)-N-(4-(5-(4-Fluorophenoxy)pentyl)benzyl)-3-hydroxy-pyrrolidine-2-carboxamide]
2 | CCCCCCSCCCCc1ccc(NC(=O)[C@H]2NCC[C@@H]2O)cc1 [Example 41, (2S,3S)-N-(4-(4-(hexylthio)butyl)phenyl)-3-hydroxy-pyrrolidine-2-carboxamide]
220 | CCCCCCCc1ccc(-c2noc(CNC(=O)[C@H]3NCC[C@@H]3O)n2)cc1 [Example 77, (2S,3S)—N-((3-(4-Heptylphenyl)-1,2,4-oxadiazol-5-yl)methyl)-3-hydroxypyrrolidine-2-carboxamide]
110 | O=C(NCc1ccc2oc(CC3CCCCC3)cc2c1)[C@H]1NCC[C@@H]1O [Example 116, (2S,3S)—N-((2-(Cyclohexylmethyl)benzofuran-5-yl)methyl)-3-hydroxypyrrolidine-2-carboxamide]
> 1000 | CCCCCCCCc1ccc(NC(=O)[C@@H](NCC2CCCCC2)[C@H](C)O)cc1 [Example 48, (2S,3S)-2-(cyclohexyl-methyl-amino)-3-hydroxy-N-(4-octylphenyl) butanamide]
2700 | CCCCCCCc1noc(-c2ccc(CNC(=O)[C@@H]3C[C@@H](O)CCN3)cc2)n1 [Example 102, (2S,4S)—N-(4-(3-heptyl-1,2,4-oxadiazol-5-yl)benzyl)-4-hydroxypiperidine-2-carboxamide]
1600 | O=C(NCc1ccc(-n2cc(CCc3ccccc3)nn2)cc1)[C@H]1NCC[C@@H]1O [Example 65, (2S,3S)-3-Hydroxy-N-(4-(4-phenethyl-1H-1,2,3-triazol-1-yl)benzyl)pyrrolidine-2-carboxamide]
300 | CCCCCCCCc1cc2cc(CNC(=O)[C@H]3NCC[C@@H]3O)ccc2n1C [Example 109, (2S,3S)-3-Hydroxy-N-((1-methyl-2-octyl-1H-indol-5-yl)methyl)pyrrolidine-2-carboxamide]
130 | CC[C@H](NC(=O)[C@H]1NCC[C@@H]1O)c1ccc(-c2noc(C3CCCCC3)n2)cc1 [Example 99, (2S,3S)—N—((S)-1-(4-(5-Cyclohexyl-1,2,4-oxadiazol-3-yl)phenyl)propyl)-3-hydroxypyrrolidine-2-carboxamide hemi-tartrate salt]
740 | CCCCCCCCc1ccc(NC[C@H]2NCC[C@@H]2O)cc1 [Example 9, (2R,3S)-2-((4-Octylphenyl-amino)methyl) pyrrolidin-3-ol]
5000 | O=C(NCc1ccc2oc(CCOc3ccc(F)cc3)cc2c1)[C@H]1NCC[C@@H]1O [Example 111, (2S,3S)—N-((2-(2-(4-Fluorophenoxy)ethyl)benzofuran-5-yl)methyl)-3-hydroxypyrrolidine-2-carboxamide]
> 10000 | CCCCCCCCCCc1ccc(NC(=O)[C@H]2NCCC[C@H]2O)cc1 (relative stereo) [Example 45, cis-N-(4-decylphenyl)-3-hydroxy-piperidine-2-carboxamide]
6100 | CCCCC(=O)CCCCCc1ccc(NC(=O)[C@@H](N)[C@@H](C)O)cc1 [Example 33, (2S,3R)-2-amino-3-hydroxy-N-(4-(6-oxodecyl)phenyl) butanamide]
46 | CCCCCCCCCCc1ccc(NC(=O)[C@@H](N)[C@@H](C)O)cc1 [Example 6, (2S,3R)-2-Amino-N-(4-decylphenyl)-3-hydroxy-butanamide]
190 | CCCCCCCCc1ccc([C@H](C)NC(=O)[C@H]2NCC[C@@H]2O)cc1 [Example 27, (2S,3S)-3-Hydroxy-N-((S)-1-(4-octylphenyl)ethyl) pyrrolidine-2-carboxamide]
2100 | CCCCCCCCc1ccc(CNC(=O)[C@H]2NCC[C@@H]2O)cc1 [Example 36, (2S,3S)-3-hydroxy-N-(4-octylbenzyl) pyrrolidine-2-carboxamide]
1100 | CCCCCCCCc1ccc(-c2ccc(NC(=O)[C@@H](N)[C@@H](C)O)cc2)cc1 [Example 59, (2S,3R)-2-Amino-3-hydroxy-N-(4′-octylbiphenyl-4-yl)butanamide]
3700 | CCCCc1ccc(-c2nc(-c3ccc(CNC(=O)[C@H]4NCC[C@@H]4O)cc3)no2)cc1 [Example 82, (2S,3S)—N-(4-(5-(4-Butylphenyl)-1,2,4-oxadiazol-3-yl)benzyl)-3-hydroxypyrrolidine-2-carboxamide]

IC50 [nM] | Structure (SMILES)
1100 | CCCCCCCCc1ccc(NC(=O)[C@@H](N)[C@H](C)O)cc1 [Example 32, (2S,3S)-2-Amino-3-hydroxy-N-(4-octylphenyl) butanamide]
49 | CCCCCCCCc1nc(-c2ccc(CNC(=O)[C@H]3NCC[C@@H]3O)cc2)cs1 [Example 103, (2S,3S)-3-hydroxy-N-(4-(2-octylthiazol-4-yl)benzyl)pyrrolidine-2-carboxamide]
950 | O=C(Nc1ccc(CCCC2CCCCC2)cc1)[C@H]1NCC[C@@H]1O [Example 50, (2S,3S)-N-(4-(3-cyclohexyl-propyl)phenyl)-3-hydroxy-pyrrolidine-2-carboxamide]
3600 | CCCCCCCCc1ccc(O)c(NC(=O)[C@H]2NCC[C@@H]2O)c1 [Example 58, hydrochloride]
7300 | O=C(NCc1ccc(-n2cc(CCc3ccc(F)cc3)nn2)cc1)[C@H]1NCC[C@@H]1O [Example 68, (2S,3S)—N-(4-(4-(4-Fluorophenethyl)-1H-1,2,3-triazol-1-yl)benzyl)-3-hydroxypyrrolidine-2-carboxamide]
530 | CCCCCCc1cc2cc(CNC(=O)[C@H]3NCC[C@@H]3O)ccc2o1 [Example 114, (2S,3S)—N-((2-Hexylbenzofuran-5-yl)methyl)-3-hydroxypyrrolidine-2-carboxamide]
4400 | CC(C)Cc1ccc(-c2nc(-c3ccc(CNC(=O)[C@H]4NCC[C@@H]4O)cc3)no2)cc1 [Example 78, (2S,3S)-3-Hydroxy-N-(4-(5-(4-isobutylphenyl)-1,2,4-oxadiazol-3-yl)benzyl)pyrrolidine-2-carboxamide]
1500 | O=C(Nc1ccc(CCCOc2ccc(F)cc2)cc1)[C@H]1NCC[C@@H]1O [Example 23, (2S,3S)-N-(4-(3-(4-Fluorophenoxy)propyl)phenyl)-3-hydroxy-pyrrolidine-2-carboxamide]
900 | CCCCCCCc1ccc(-c2ccc(NC(=O)[C@@H](N)[C@@H](C)O)cc2)nc1 [Example 101, (2S,3R)-2-amino-N-(4-(5-heptylpyridin-2-yl)phenyl)-3-hydroxybutanamide]
1500 | CCCCCCCOc1ccc(NC(=O)[C@@H](N)[C@@H](C)O)cc1 [Example 12, (2S,3R)-2-Amino-N-(4-(heptyloxy)phenyl)-3-hydroxy-butanamide]
8300 | CCCCCCCCc1ccc(NC(=O)[C@H]2NC[C@H](O)[C@@H]2O)cc1 [Example 20, (2S,3R,4S)-3,4-Dihydroxy-N-(4-octylphenyl) pyrrolidine-2-carboxamide]
5000 | CCCCCCCCc1ccc(NC[C@@H](N)CO)cc1 [Example 10, (R)-2-Amino-3-(4-octylphenyl-amino) propan-1-ol]
65 | O=C(NCc1ccc(-n2cc(CCc3ccccc3)cn2)cc1)[C@H]1NCC[C@@H]1O [Example 69, (2S,3S)-3-Hydroxy-N-(4-(4-phenethyl-1H-pyrazol-1-yl)benzyl)pyrrolidine-2-carboxamide]
5000 | CCCCCCCCc1ccc(NC(=O)[C@H](N)CO)cc1 [Example 3, (R)-2-Amino-3-hydroxy-N-(4-octylphenyl) propanamide]
140 | CC[C@H](NC(=O)[C@H]1NCC[C@@H]1O)c1ccc(-n2cc(CCc3ccccc3)nn2)cc1 [Example 66, (2S,3S)-3-Hydroxy-N—((S)-1-(4-(4-phenethyl-1H-1,2,3-triazol-1-yl)phenyl)propyl)pyrrolidine-2-carboxamide]
3200 | C[C@@H](O)[C@H](N)C(=O)Nc1ccc(CCCCCOc2ccc(F)cc2)cc1 [Example 22, (2S,3R)-2-Amino-N-(4-(5-(4-fluorophenoxy)pentyl)phenyl)-3-hydroxy-butanamide]
370 | O=C(Nc1ccc(CCCCCCCOc2ccc(F)cc2)cc1)[C@H]1NCC[C@@H]1O [Example 25, (2S,3S)-N-(4-(7-(4-Fluorophenoxy)heptyl)phenyl)-3-hydroxy-pyrrolidine-2-carboxamide]
190 | O=C(Nc1ccc(CCCCCOc2ccc(F)cc2)cc1)[C@H]1NCC[C@@H]1O [Example 24, (2S,3S)-N-(4-(5-(4-Fluorophenoxy)pentyl)phenyl)-3-hydroxy-pyrrolidine-2-carboxamide]
6400 | O=C(NCc1ccc(-c2noc(C3CCC(F)(F)CC3)n2)cc1)[C@H]1NCC[C@@H]1O [Example 92, (2S,3S)—N-(4-(5-(4,4-Difluorocyclohexyl)-1,2,4-oxadiazol-3-yl)benzyl)-3-hydroxypyrrolidine-2-carboxamide]
